Test results from US11014917B2, “5-fluoro-c-(aryl or heterocyclyl)-glycoside derivatives useful as dual SGLT1 / SGLT2 modulators” (Janssen Pharmaceutica NV, priority 2017, dated 2021).

Key:
human SGLT1 = target: T1, human SGLT1 (Homo sapiens, UniProt P13866); assay: SGLT1 assay: Na-dependent 14C-AMG uptake in CHO-K1 cells stably expressing human SGLT1; assay type: cell-based; settings: for IC50: average if tested more than once; for inhibition at 0.3 µM / SGLT1 %-inhibition: @ 0.3 μM
T1 construct: expressed in transfected cells
T1 sequence (P13866 1-664): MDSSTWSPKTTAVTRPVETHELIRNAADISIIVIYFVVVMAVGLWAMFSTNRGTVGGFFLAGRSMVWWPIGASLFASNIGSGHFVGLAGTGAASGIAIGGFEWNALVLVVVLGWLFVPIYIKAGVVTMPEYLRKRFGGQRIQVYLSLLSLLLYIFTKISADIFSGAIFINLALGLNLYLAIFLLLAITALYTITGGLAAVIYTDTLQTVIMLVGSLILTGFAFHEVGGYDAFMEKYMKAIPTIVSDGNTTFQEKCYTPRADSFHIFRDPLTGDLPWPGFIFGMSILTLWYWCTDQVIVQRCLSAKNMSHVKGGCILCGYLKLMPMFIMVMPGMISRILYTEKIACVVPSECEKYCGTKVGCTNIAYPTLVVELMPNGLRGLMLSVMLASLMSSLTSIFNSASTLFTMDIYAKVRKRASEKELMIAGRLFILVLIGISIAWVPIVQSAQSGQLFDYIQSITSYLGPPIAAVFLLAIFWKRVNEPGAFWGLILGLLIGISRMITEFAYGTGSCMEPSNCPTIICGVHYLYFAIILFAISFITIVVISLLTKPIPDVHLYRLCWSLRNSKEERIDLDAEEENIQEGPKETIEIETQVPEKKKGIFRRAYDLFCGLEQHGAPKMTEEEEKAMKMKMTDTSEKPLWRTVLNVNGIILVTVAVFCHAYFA
Outline: (§1)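 Stable CHO-K1 lines were pretreated 24 h with 10 mM Na-butyrate, then compound (0.001–10 μM) for 10 min in Na+ buffer (137 mM NaCl, pH 7.4). Uptake of 14C-AMG (500 μM final, 0.07 μCi/well) over 2 h at 37° C measured by scintillation; %-inhibition or IC50.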

human SGLT2 = target: T2, human SGLT2 (Homo sapiens, UniProt P31639); assay: SGLT2 assay: Na-dependent 14C-AMG uptake in CHO-K1 cells stably expressing human SGLT2; assay type: cell-based; settings: for IC50: average if tested more than once; for inhibition at 0.3 µM / SGLT2 %-inhibition: @ 0.3 μM
T2 construct: expressed in transfected cells
T2 sequence (P31639 1-672): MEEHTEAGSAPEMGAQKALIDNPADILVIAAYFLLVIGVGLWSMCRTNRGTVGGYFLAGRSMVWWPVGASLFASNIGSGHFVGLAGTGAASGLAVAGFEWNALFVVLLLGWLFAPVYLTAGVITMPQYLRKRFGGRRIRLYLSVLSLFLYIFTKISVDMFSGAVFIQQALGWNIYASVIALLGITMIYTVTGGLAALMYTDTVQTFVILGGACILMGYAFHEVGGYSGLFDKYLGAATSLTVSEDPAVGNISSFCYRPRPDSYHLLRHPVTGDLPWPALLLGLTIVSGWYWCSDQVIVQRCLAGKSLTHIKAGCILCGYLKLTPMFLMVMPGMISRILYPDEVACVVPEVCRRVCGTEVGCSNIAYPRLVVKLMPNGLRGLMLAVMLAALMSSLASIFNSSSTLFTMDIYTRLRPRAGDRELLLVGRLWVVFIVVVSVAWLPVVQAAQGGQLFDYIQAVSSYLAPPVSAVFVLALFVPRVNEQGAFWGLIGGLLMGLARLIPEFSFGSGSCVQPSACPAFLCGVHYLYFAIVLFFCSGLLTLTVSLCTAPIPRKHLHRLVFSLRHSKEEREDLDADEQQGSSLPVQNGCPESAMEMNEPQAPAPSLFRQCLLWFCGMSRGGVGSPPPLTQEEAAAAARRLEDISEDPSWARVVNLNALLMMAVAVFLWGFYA
Outline: as §1

| Structure (SMILES) | IC50 (human SGLT1) [nM] | IC50 (human SGLT2) [nM] | SGLT1 %-inhibition (human SGLT1) [% @ 0.3 μM] | SGLT2 %-inhibition (human SGLT2) [% @ 0.3 μM] | other results |
| --- | --- | --- | --- | --- | --- |
| COc1cc(O)c([C@@H]2O[C@H](CO)[C@@H](F)[C@H](O)[C@H]2O)cc1Cc1cc2c(s1)CCN(C#N)C2 [Compound 100] | 95 | 8 | – | – | – |
| COc1c(Cc2ccc3c(c2)OCCO3)cc([C@@H]2O[C@H](CO)[C@@H](F)[C@H](O)[C@H]2O)c2c1CCO2 [Compound 101, (2S,3R,4R,5S,6R)-2-[5-(2,3-dihydro-1,4-benzodioxin-6-ylmethyl)-4-methoxy-2,3-dihydrobenzofuran-7-yl]-5-fluoro-6-(hydroxymethyl)tetrahydropyran-3,4-diol] | 96 | 7 | – | – | – |
| CCOc1c(Cc2ccc3c(c2)OCCO3)cc([C@@H]2O[C@H](CO)[C@@H](F)[C@H](O)[C@H]2O)c2c1CCO2 [Compound 102, (2S,3R,4R,5S,6R)-2-[5-(2,3-dihydro-1,4-benzodioxin-6-ylmethyl)-4-ethoxy-2,3-dihydrobenzofuran-7-yl]-5-fluoro-6-(hydroxymethyl)tetrahydropyran-3,4-diol] | – | – | – | – | inhibition at 0.3 µM (human SGLT1): 27.6%; inhibition at 0.3 µM (human SGLT2): 40.7% |
| Cc1cc(O)c([C@@H]2O[C@H](CO)[C@@H](F)[C@H](O)[C@H]2O)cc1Cc1cc2c(s1)CCN(C#N)C2 [Compound 103, 2-(5-((2S,3R,4R,5S,6R)-5-fluoro-3,4-dihydroxy-6-(hydroxymethyl)-tetrahydro-2H-pyran-2-yl)-4-hydroxy-2-methylbenzyl)-6,7-dihydrothieno[3,2-c]pyridine-5(4H)-carbonitrile] | 86 | 3 | – | – | – |
| COc1cc(OC)c([C@@H]2O[C@H](CO)[C@@H](F)[C@H](O)[C@H]2O)cc1Cc1cc2c(s1)CCN(C#N)C2 [Compound 104] | – | – | 32.5 | 81.2 | – |
| COc1c([C@@H]2O[C@H](CO)[C@@H](F)[C@H](O)[C@H]2O)cc(Cc2ccc3c(c2)NCCC3)c2c1CCO2 [Compound 105, (2S,3R,4R,5S,6R)-5-fluoro-6-(hydroxymethyl)-2-(4-methoxy-7-((1,2,3,4-tetrahydroquinolin-7-yl)methyl)-2,3-dihydrobenzofuran-5-yl)-tetrahydro-2H-pyran-3,4-diol] | 128 | 4 | – | – | – |
| COc1cc(Cl)c(Cc2cc3c(s2)CCN(C(=O)c2nccs2)C3)cc1[C@@H]1O[C@H](CO)[C@@H](F)[C@H](O)[C@H]1O [Compound 106] | – | – | 29.4 | 82.1 | – |
| COc1c([C@@H]2O[C@H](CO)[C@@H](F)[C@H](O)[C@H]2O)cc(Cc2ccc3c(c2)SCCO3)c2c1CCO2 [Compound 107, (2S,3R,4R,5S,6R)-2-(7-((2,3-dihydrobenzo[b][1,4]oxathiin-6-yl)methyl)-4-methoxy-2,3-dihydrobenzofuran-5-yl)-5-fluoro-6-(hydroxymethyl)-tetrahydro-2H-pyran-3,4-diol] | 163 | 8 | – | – | – |
| COc1c([C@@H]2O[C@H](CO)[C@@H](F)[C@H](O)[C@H]2O)cc(Cc2ccc3c(c2)N(C)CCC3)c2c1CCO2 [Compound 108, (2S,3R,4R,5S,6R)-5-fluoro-6-(hydroxymethyl)-2-(4-methoxy-7-((1-methyl-1,2,3,4-tetrahydroquinolin-7-yl)methyl)-2,3-dihydrobenzofuran-5-yl)-tetrahydro-2H-pyran-3,4-diol] | 326 | 75 | – | – | – |
| Cc1ccc([C@@H]2O[C@H](CO)[C@@H](F)[C@H](O)[C@H]2O)cc1Cc1cc2c(s1)CCN(C(=O)c1nccs1)C2 [Compound 109, (2-(5-((2S,3R,4R,5S,6R)-5-fluoro-3,4-dihydroxy-6-(hydroxymethyl)-tetrahydro-2H-pyran-2-yl)-2-methylbenzyl)-6,7-dihydrothieno[3,2-c]pyridin-5(4H)-yl)(thiazol-2-yl)methanone] | – | – | – | – | inhibition at 0.3 µM (human SGLT1): 39.5%; inhibition at 0.3 µM (human SGLT2): 72.7% |
| COc1cc(C)c(Cc2cc3c(s2)CCN(C#N)C3)cc1[C@@H]1O[C@H](CO)[C@@H](F)[C@H](O)[C@H]1O [Compound 110, 2-(5-((2S,3R,4R,5S,6R)-5-fluoro-3,4-dihydroxy-6-(hydroxymethyl)-tetrahydro-2H-pyran-2-yl)-4-methoxy-2-methylbenzyl)-6,7-dihydrothieno[3,2-c]pyridine-5(4H)-carbonitrile] | 1420 | 5 | – | – | – |
| Cc1cnc(N2CCc3sc(Cc4cc([C@@H]5O[C@H](CO)[C@@H](F)[C@H](O)[C@H]5O)c(O)cc4C)cc3C2)s1 [Compound 111] | 101 | 19 | – | – | – |
| COc1cc(C)c(Cc2cc3c(s2)CCN(C(=O)c2nccs2)C3)cc1[C@@H]1O[C@H](CO)[C@@H](F)[C@H](O)[C@H]1O [Compound 112, (2-(5-((2S,3R,4R,5S,6R)-5-fluoro-3,4-dihydroxy-6-(hydroxymethyl)-tetrahydro-2H-pyran-2-yl)-4-methoxy-2-methylbenzyl)-6,7-dihydrothieno[3,2-c]pyridin-5(4H)-yl)(thiazol-2-yl)methanone] | 376 | 23 | – | – | – |
| Cc1cnc(N2CCc3sc(Cc4cc([C@@H]5O[C@H](CO)[C@@H](F)[C@H](O)[C@H]5O)ccc4C)cc3C2)s1 [Compound 113] | – | – | 21.0 | 53.9 | – |
| N#CN1CCc2sc(Cc3cc([C@@H]4O[C@H](CO)[C@@H](F)[C@H](O)[C@H]4O)c(O)cc3Cl)cc2C1 [Compound 114] | 109 | 5 | – | – | – |
| CCc1cc(OC)c([C@@H]2O[C@H](CO)[C@@H](F)[C@H](O)[C@H]2O)cc1Cc1cc2c(s1)CCN(C#N)C2 [Compound 115] | – | – | 35.6 | 79.3 | – |

Now from value to compound, other results behind:

| IC50 (human SGLT1) [nM] | IC50 (human SGLT2) [nM] | SGLT1 %-inhibition (human SGLT1) [% @ 0.3 μM] | SGLT2 %-inhibition (human SGLT2) [% @ 0.3 μM] | Structure (SMILES) | other results |
| --- | --- | --- | --- | --- | --- |
| – | – | 11.5 | 78.0 | Cc1ccc([C@@H]2O[C@H](CO)[C@@H](F)[C@H](O)[C@H]2O)cc1Cc1cc2c(s1)CCCC2=O [Compound 116] | – |
| – | – | 44.3 | 69.9 | Cc1cnc(N2CCc3sc(Cc4cc([C@@H]5O[C@H](CO)[C@@H](F)[C@H](O)[C@H]5O)c(O)cc4C)cc3C2)s1 [Compound 117] | – |
| 50 | 2 | – | – | CCc1cc(O)c([C@@H]2O[C@H](CO)[C@@H](F)[C@H](O)[C@H]2O)cc1Cc1cc2c(s1)CCN(C#N)C2 [Compound 118] | – |
| 156 | 11 | – | – | Cc1cc(O)c([C@@H]2O[C@H](CO)[C@@H](F)[C@H](O)[C@H]2O)cc1Cc1cc2c(s1)CCCC2=O [Compound 119] | – |
| – | – | 6.6 | 54.7 | COc1ccc([C@@H]2O[C@H](CO)[C@@H](F)[C@H](O)[C@H]2O)cc1Cc1cc2c(s1)CCN(C#N)C2 [Compound 120] | – |
| – | – | 20.5 | 79.8 | N#CN1CCc2sc(Cc3cc([C@@H]4O[C@H](CO)[C@@H](F)[C@H](O)[C@H]4O)ccc3Cl)cc2C1 [Compound 121] | – |
| – | – | 31.7 | 63.6 | Cc1cnc(N2CCc3sc(Cc4cc([C@@H]5O[C@H](CO)[C@@H](F)[C@H](O)[C@H]5O)ccc4C)cc3C2)s1 [Compound 122] | – |
| 1360 | 100 | – | – | COc1cc(C)c(Cc2cc3c(s2)CCN(c2ncc(C)s2)C3)cc1[C@@H]1O[C@H](CO)[C@@H](F)[C@H](O)[C@H]1O [Compound 123] | – |
| 698 | 147 | – | – | OC[C@H]1O[C@@H](c2cc3c(c(Cc4ccc5c(c4)SCCO5)c2)OCC3)[C@H](O)[C@@H](O)[C@@H]1F [Compound 124] | – |
| 227 | 17 | – | – | OC[C@H]1O[C@@H](c2cc(Cc3ccc4c(c3)CCCO4)c(Cl)c3c2OCC3)[C@H](O)[C@@H](O)[C@@H]1F [Compound 125, (2S,3R,4R,5S,6R)-2-(4-chloro-5-(chroman-6-ylmethyl)-2,3-dihydrobenzofuran-7-yl)-5-fluoro-6-(hydroxymethyl)-tetrahydro-2H-pyran-3,4-diol] | – |
